Results on eight compounds are retold here after patent publication US12686809B2, “Methods and formulations for treating oil-containing porous media for oil recovery” (UNIVERSITY OF WYOMING, priority 2020, dated 2026).

One series in a line: Krafft and cloud point temperatures / solution cloudiness at ambient conditions. It counts as physicochemical. The settings on record: about 0.1 wt % in blank brine; about 22° C., ambient conditions. As to the method: Krafft and cloud point temperatures at ambient conditions: At ambient conditions, the Krafft point and cloud point temperatures were determined as follows. Fresh brine solutions containing about 0.1 wt % of surfactant solution were prepared and poured into 25 ml glass vials. The vials were capped and placed upright in a water bath and/or heater at an initial temperature of about 22° C. […] For each increment, it typically took at least 20 minutes for the brine to reach thermal equilibrium (temperature stabilization) with the water bath. The cloud and Krafft points were determined visually by recording the temperatures at which cloudiness was observed or disappeared. Images of the brine solutions were captured after each temperature stabilization.
The effect of the hydrophobic (alkyl) chain length on the stability and aqueous solubility/cloudiness of cationic surfactants was examined by measuring Krafft points at elevated pressure and temperature were performed. FIG. 15 is a series of exemplary images of solutions of cationic surfactants having a bromide head with increasing carbon atom numbers from left to right—DTAB (left panel), CTAB (center panel), and TODAB (right panel). For these tests, each surfactant was made into a surfactant solution (about 0.1 wt % in blank brine). The images were captured at about 22° C.
(left panel) and about 75° C. (right panel).
(§1) The cloud points of certain nonionic surfactants were measured at high pressure (about 6,000 psi) and temperature. […] (center panel) and about 99.9° C. (right panel), at a pressure of about 6,000 psi.
Consider `CCCCCCCC[N+](C)(C)C.[Cl-]` [TOAC, Trimethyloctylammonium chloride], for which the “solution clarity/cloudiness (in words)” value is listed as “clearest”.

Take `CCCCCCCC[N+](C)(C)C.[Br-]` [TOAB, Trimethyloctylammonium bromide]: the “solution clarity/cloudiness (in words)” value is reported as “already clear at ambient conditions”.

Regarding `CCCCCCCCCCCCCCCCCC[N+](C)(C)C.[Cl-]` [TSAC, Trimethyloctadecylammonium chloride], the “solution clarity/cloudiness (in words)” value is “cloudiest”.

The same series, now with this note: about 0.1 wt % in blank brine; heated while stirring; ambient pressure.
Consider `CCCCCCCCCCCCCCCCCC[N+](C)(C)C.[Cl-]` [TSAC, Trimethyloctadecylammonium chloride], for which the “temperature at which the solution became and stayed clear” value was “about 75 °C”.

Another series is described as follows: Krafft and cloud point temperatures at reservoir conditions (IFT cell, 6,000 psi). The class given is physicochemical. The settings on record: about 0.1 wt % in blank brine; about 6,000 psi. Here is the method:
as §1
(right panel), at a pressure of about 6,000 psi.
On to `CCCCCCCCCCCCCCCCCC[N+](C)(C)C.[Cl-]` [TSAC, Trimethyloctadecylammonium chloride], for which the Krafft point result is “about 40 °C”.

The next series can be described thus: Critical micelle concentration by surface tension (pendant drop) at ambient conditions. It counts as physicochemical. The settings on record: surface tension against air. Here is the method: Pendant drop method: The pendant drop method was mainly utilized when the density of the suspended phase is higher than that of the bulk phase. The same device as that used in the captive/rising bubble method is used for the pendant drop method. The method consists of a drop suspended from a needle to determine interfacial and surface tension of liquid/liquid and liquid/gas systems. The critical micelle concentration (CMC) of cationic surfactants was measured using surface tension measurements between the surfactant solutions and air at ambient conditions. […] Therefore, generally, the measurements were performed at a concentration above CMC (about 0.1 wt %), which is the one typically used in the field.
CMC measurements were performed to, e.g., investigate the effect of the hydrophobic chain length on the behavior of cationic surfactant molecules at the interface. […] As a baseline, the surface tension of blank brine was measured to be about 75.4 mN/m.
FIGS. 18A-18C show exemplary data for CMC measurements of surfactants with chloride heads and various alkyl chain lengths and depicting the variations of surface tension with concentration. Specifically, FIGS. 18A, 18B, and 18C show exemplary surface tension data for DTAC, CTAC, and TSAC.
For the compound `CCCCCCCCCCCC[N+](C)(C)C.[Cl-]` [DTAC, Dodecyltrimethylammonium chloride], the CMC result is “about 0.005 wt %”.

For the compound `CCCCCCCCCCCCCCCCCC[N+](C)(C)C.[Cl-]` [TSAC, Trimethyloctadecylammonium chloride], the CMC entry was “about 0.001 wt %”.

For the compound `CCCCCCCCCCCCCCCC[N+](C)(C)C.[Cl-]` [CTAC, Cetyltrimethyl ammonium chloride], the CMC entry is “about 0.003 wt %”.

A short description of another series: IFT between surfactant solutions and reservoir crude oil at ambient conditions (spinning drop). The class given is physicochemical. The settings on record: ~0.1 wt % in blank brine. Here is the method:
Spinning drop method: The spinning drop method was utilized to measure ultra-low IFT values. The instrumentation included a KRÜSS Spinning Drop Tensiometer was employed and the spinning drop method was performed as follows. A crude oil droplet was launched from a capillary plug into a capillary tube filled with the surfactant solution. While the glass capillary tube was rotating, the software-controlled instrument measured the IFT between oil and brine by analyzing the drop shape which depends on the balance between interfacial and centrifugal forces. At low rotational speeds, the IFT is the dominating force and the droplet is spherical in shape. In this case the software uses Young-Laplace equation to calculate IFT. When the angular velocity is high, the droplet is elongated (length is at least 4 times the diameter) and Vonnegut's equation is used to calculate the IFT.
(§2) Measurement of the IFT between surfactant solutions/reservoir oil at ambient conditions were first performed to, e.g., examine the impact of the hydrophobic chain length on the interfacial properties of cationic surfactants. For these measurements, a KRÜSS Spinning Drop Tensiometer was used.
Consider `CCCCCCCC[N+](C)(C)C.[Cl-]` [TOAC, Trimethyloctylammonium chloride], for which the “γ (interfacial tension surfactant solution/reservoir oil)” value was found to be 5.05 mN/m.

Consider `CCCCCCCCCCCCCCCC[N+](C)(C)C.[Br-]` [CTAB, Hexadecyltrimethylammonium bromide], for which the “γ (interfacial tension surfactant solution/reservoir oil)” value is 0.15 mN/m.

With `CCCCCCCC[N+](C)(C)C.[Br-]` [TOAB, Trimethyloctylammonium bromide], the “γ (interfacial tension surfactant solution/reservoir oil)” value is 8.4 mN/m.

As to `CCCCCCCCCCCC[N+](C)(C)C.[Cl-]` [DTAC, Dodecyltrimethylammonium chloride], the “γ (interfacial tension surfactant solution/reservoir oil)” value was 1.6 mN/m.

Turning to `CCCCCCCCCCCCCCCCCC[N+](C)(C)C.[Br-]` [TODAB, Trimethyloctadecylammonium bromide], the “γ (interfacial tension surfactant solution/reservoir oil)” value is recorded as 0.07 mN/m.

As to `CCCCCCCCCCCC[N+](C)(C)C.[Br-]` [DTAB, Dodecyltrimethylammonium bromide], the “γ (interfacial tension surfactant solution/reservoir oil)” value is recorded as 1.1 mN/m.

In the case of `CCCCCCCCCCCCCCCC[N+](C)(C)C.[Cl-]` [CTAC, Cetyltrimethyl ammonium chloride], the “γ (interfacial tension surfactant solution/reservoir oil)” value is reported as 0.11 mN/m.

Another series can be described thus: Density difference between surfactant solution and crude oil. It counts as physicochemical. The settings on record: ~0.1 wt % in blank brine vs reservoir crude oil; ambient conditions. As to the method: Density: The density of the two phases (oil and brine; or oil and surfactant solution) was measured at atmospheric pressure and 22° C. using a DMA45 density meter from Anton Paar. The density of the two phases was also measured at reservoir conditions (120° C., 6000 psi) using an in-line density meter (DMA HPM, Anton Paar).
as §2
With `CCCCCCCC[N+](C)(C)C.[Cl-]` [TOAC, Trimethyloctylammonium chloride], the “Δρ (change in density)” value amounted to 0.3822 g/mL.

Turning to `CCCCCCCCCCCCCCCC[N+](C)(C)C.[Br-]` [CTAB, Hexadecyltrimethylammonium bromide], the “Δρ (change in density)” value was found to be 0.382 g/mL.

Turning to `CCCCCCCC[N+](C)(C)C.[Br-]` [TOAB, Trimethyloctylammonium bromide], the “Δρ (change in density)” value was 0.3823 g/mL.

As for `CCCCCCCCCCCC[N+](C)(C)C.[Cl-]` [DTAC, Dodecyltrimethylammonium chloride], the “Δρ (change in density)” value was 0.3826 g/mL.

For the compound `CCCCCCCCCCCCCCCCCC[N+](C)(C)C.[Br-]` [TODAB, Trimethyloctadecylammonium bromide], the “Δρ (change in density)” value amounted to 0.3831 g/mL.

For the compound `CCCCCCCCCCCCCCCCCC[N+](C)(C)C.[Cl-]` [TSAC, Trimethyloctadecylammonium chloride], the “Δρ (change in density)” value was found to be 0.3829 g/mL.

For `CCCCCCCCCCCC[N+](C)(C)C.[Br-]` [DTAB, Dodecyltrimethylammonium bromide], the “Δρ (change in density)” value amounted to 0.3835 g/mL.

`CCCCCCCCCCCCCCCC[N+](C)(C)C.[Cl-]` [CTAC, Cetyltrimethyl ammonium chloride]: the “Δρ (change in density)” value was found to be 0.3834 g/mL.

A further series can be described thus: IFT between surfactant solutions and reservoir oil at reservoir conditions. The class given is physicochemical. To be noted: about 100° C. and about 1,000 psi. As to the method:
Captive/rising bubble method: The captive/rising bubble method was utilized to measure the dynamic IFT and contact angle at reservoir conditions. This method was performed as follows. The lighter phase was injected through a needle to form a bubble inside the heavier phase. The IFT between the two phases was calculated from the shape of the bubble using the Young-Laplace equation through Axisymmetric Drop Shape Analysis (ADSA). The state-of-the-art interfacial tension and contact angle (IFT/CA) apparatus adopted for the measurements is described and used by S. Saraji et al., Wettability of Supercritical Carbon Dioxide/Water/Quartz Systems: Simultaneous Measurement of Contact Angle and Interfacial Tension at Reservoir Conditions, Langmuir, 29 (2013) 6856-6866. This experimental setup can operate at elevated temperature (up to 200° C.) and pressure (up to 8000 psi). […] For contact angle measurement, a droplet was injected from the needle onto the solid substrate and monitored by capturing several images with time and analyzing them using ImageJ software.
Pendant drop method: The pendant drop method was mainly utilized when the density of the suspended phase is higher than that of the bulk phase. […] The critical micelle concentration (CMC) of cationic surfactants was measured using surface tension measurements between the surfactant solutions and air at ambient conditions. […]
As for `CCCCCCCC[N+](C)(C)C.[Br-]` [TOAB, Trimethyloctylammonium bromide], the “IFT reduction relative to the blank brine” value was “about 7 mN/m”.

The nature of another series: Microemulsion phase behavior of surfactant solution/crude oil. The class given is physicochemical. To be noted: about 0.1 wt % in blank brine/crude oil 1:1; about 80° C. versus ambient. Here is the method: Microemulsion phase behavior: The microemulsion phase behavior of surfactants with different structures was investigated with respect to temperature. The effect of surfactant hydrophobic chain length on phase behavior was examined at ambient temperature (about 22° C.) and at elevated temperature (about 80° C.). For these experiments, glass pipettes were filled with brine/crude oil at a ratio of about 1:1 or surfactant solution/crude oil at a ratio of about 1:1. The pipettes were then sealed with a torch and shaken at the speed of about 250 rpm for about 24 hours (h). The pipettes were then monitored for several days and images were recorded.
Microemulsion phase behavior tests can generally be utilized to characterize surfactant stability. The phase behavior of surfactants can depend on distinct parameters such as temperature, surfactant concentration, and/or brine salinity. The effect of temperature on phase behavior was systematically investigated for various surfactants. Here, the phase behavior test was first performed on a pipette containing blank brine and the crude oil.
FIG. 13 is a series of exemplary images showing the phase behavior of cationic surfactants with a chloride head—TOAC, DTAC, CTAC, and TSAC—at ambient temperatures (left panel) and at about 80° C. (right panel). FIG. 14 is each a series of exemplary images showing the phase behavior of cationic surfactants with a bromide head—TOAB, DTAB, CTAB, and TODAB—at ambient temperatures (left panel) and at about 80° C. (right panel). For these tests, each surfactant was made into a surfactant solution (about 0.1 wt % in blank brine).
As to `CCCCCCCC[N+](C)(C)C.[Cl-]` [TOAC, Trimethyloctylammonium chloride], the “phase behavior (in words)” value is reported as “less influenced by temperature”.

On to `CCCCCCCC[N+](C)(C)C.[Br-]` [TOAB, Trimethyloctylammonium bromide], for which the “phase behavior (in words)” value was “less influenced by temperature”.

Turning to `CCCCCCCCCCCCCCCCCC[N+](C)(C)C.[Br-]` [TODAB, Trimethyloctadecylammonium bromide], the “phase behavior (in words)” value is listed as “poor solubility”.

As to `CCCCCCCCCCCCCCCCCC[N+](C)(C)C.[Cl-]` [TSAC, Trimethyloctadecylammonium chloride], the “phase behavior (in words)” value is “poor solubility”.

The same series, now with this note: about 80° C.
As for `CCCCCCCCCCCCCCCCCC[N+](C)(C)C.[Br-]` [TODAB, Trimethyloctadecylammonium bromide], the “volume of surfactant phase formed between oil and brine” value is “about 0.1 cm^3”.

Turning to `CCCCCCCCCCCCCCCCCC[N+](C)(C)C.[Cl-]` [TSAC, Trimethyloctadecylammonium chloride], the “volume of surfactant phase formed between oil and brine” value is “about 0.1 cm^3”.
